6 molecules from patent US8268789B2, “PAR-2 antagonists” (Kowa Company, Ltd., priority 2004, dated 2012) can be followed below.

Read-outs that look alike come from different tables or passages of the source.

In the assay the target is T1, PAR-2 (Homo sapiens, UniProt P55085).
T1 construct: intracellular Ca^2+ level change by PAR-2 agonist in human keratinocytes expressing PAR-2; host or cells: primary human keratinocytes, passage 3 to 5
T1 sequence (P55085 26-397): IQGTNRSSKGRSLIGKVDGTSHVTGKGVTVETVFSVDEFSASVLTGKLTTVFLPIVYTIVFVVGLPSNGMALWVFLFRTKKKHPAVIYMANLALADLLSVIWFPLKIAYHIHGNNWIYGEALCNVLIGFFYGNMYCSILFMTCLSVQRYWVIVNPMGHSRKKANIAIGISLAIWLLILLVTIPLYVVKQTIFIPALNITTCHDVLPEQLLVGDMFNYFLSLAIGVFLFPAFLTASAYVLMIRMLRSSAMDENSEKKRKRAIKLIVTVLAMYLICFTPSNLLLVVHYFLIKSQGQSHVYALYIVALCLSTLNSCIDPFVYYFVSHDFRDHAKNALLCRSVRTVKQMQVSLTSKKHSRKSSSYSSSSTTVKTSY
Kind of assay: Assay of intracellular Ca2+ level in human keratinocytes stimulated with PAR-2 agonist peptide. The class given is cell-based. The settings on record: for inhibition at 10 µg/mL: read-out: Inhibition Rate (%) (Means ± Standard Error, n = 3). On the procedure: The keratinocytes were subjected to passage culture with trypsin/EDTA, and the cells whose passage number was 3 to 5 were used in the experiment.
Flex Station Calcium assay kit 2, which is a fluorescent reagent kit for calcium assay, was purchased from Molecular Devices and used in reagent preparation according to an accompanying protocol. Probenecid, Calcium ionophore (A23187) was purchased from Sigma. The human keratinocytes were seeded at a density of 40,000 cells/well to a 96-well black-well clear-bottom plate (Corning) and cultured for 24 hours until the cells became subconfluent. After washing once with KBM, 80 μl KBM was added to each well. Subsequently, a fluorescent dye solution containing an equal volume of Probenecid at a final concentration of 2 mM (HBSS solution, pH 7.4) was added to each well and incubated at 37° C. for 1 hour. Thereafter, the plate was left for 15 minutes at room temperature and assayed at room temperature (25° C.). The test chemical and the stimulants were prepared by diluting KBM having 10-fold concentration of a final concentration respectively which were then added in a volume of 20 μL respectively for assay. Measurement was carried out with a fluorescent plate reader FlexStation (Molecular Devices) compatible with a 96-well plate equipped with an injector. The measurement through the bottom was carried out for 180 seconds at 2-second intervals at an excitation wavelength of 475 nm and at a measurement wavelength of 525 nm. The chemical was added 17 seconds after the measurement was initiated.

The mark [1] stands for this setting: compound final concentration 10 μg/mL, PAR-2 agonist SLIGKV 10 μM, cultured human keratinocytes, (1-AUCantagonist/AUCcontrol)×100 of time-fluorescence intensity curve.

For orientation: inhibition means the relative decrease from the control value, in per cent.

Consider `CN1CCN(Cc2cn(Cc3c(Cl)cccc3Cl)c3ccc(NC(=O)NCC(=O)N[C@@H](CCCCN)C(=O)N[C@@H](Cc4ccccc4)C(=O)NC(c4ccccc4)c4ccccc4)cc23)CC1` [Example 12, [[N-[1-(2,6-dichlorophenyl)methyl]-3-[1-(4-methylpiperazinyl)methyl]-1H-indol-5-yl]aminocarbonyl]-glycine-L-lysine-L-phenylalanine-N-benzhydrylamide], for which the inhibition at 10 µg/mL under setting [1] was 52.2 ± 1.8%.
Still for that read-out and setting: to `CC(C)n1ccc2cc(NC(=O)NCC(=O)N[C@@H](CCN)C(=O)N[C@@H](Cc3ccccc3)C(=O)NCc3ccccc3)ccc21` [Example 24, [[N-isopropyl-1H-indol-5-yl]aminocarbonyl]-glycine-L-α,γ-diaminobutyrate-L-phenylalanine-N-benzylamide] belongs 15.1 ± 10.5%.
Take `NCCCC[C@H](NC(=O)CNC(=O)Nc1ccc2c(c1)c(CN1CCCC1)cn2Cc1c(Cl)cccc1Cl)C(=O)N[C@@H](Cc1ccccc1)C(=O)NC(c1ccccc1)c1ccccc1` [Example 10, [[N-[1-(2,6-dichlorophenyl)methyl]-3-(1-pyrrolidinylmethyl)-1H-indol-5-yl]aminocarbonyl]-glycine-L-lysine-L-phenylalanine-N-benzhydrylamide]: the inhibition at 10 µg/mL is 58.4 ± 13%. Further, under “compound final concentration 10 μg/mL, SLIGKV 10 μM, human keratinocytes, FIG. 1”, the “PAR-2 inhibitory action (inhibition of the agonist-induced increase in intracellular Ca2+ level), in words” value is given as “inhibition was recognized”.
As to `NCCCC[C@H](NC(=O)CNC(=O)Nc1ccc2c(c1)c(CN1CCCC1)cn2Cc1c(Cl)cccc1Cl)C(=O)N[C@@H](Cc1ccccc1)C(=O)NCc1ccccc1` [Example 21, [[N-[1-(2,6-dichlorophenyl)methyl]-3-(1-pyrrolidinylmethyl)-1H-indol-5-yl]aminocarbonyl]-glycine-L-lysine-L-phenylalanine-N-benzylamide], the inhibition at 10 µg/mL under setting [1] came out at 14.2 ± 10%.
Still for that read-out and setting: the result for `NCC[C@H](NC(=O)CNC(=O)Nc1ccc2c(c1)c(CN1CCCC1)cn2Cc1c(Cl)cccc1Cl)C(=O)N[C@@H](Cc1ccccc1)C(=O)NCc1ccccc1` [Example 20, [[N-[1-(2,6-dichlorophenyl)methyl]-3-(1-pyrrolidinylmethyl)-1H-indol-5-yl]aminocarbonyl]-glycine-L-α,γ-diaminobutyrate-L-phenylalanine-N-benzylamide] reads 33.6 ± 16.8%; that for `NCC[C@H](NC(=O)CNC(=O)Nc1ccc2c(c1)c(CN1CCCC1)cn2Cc1c(Cl)cccc1Cl)C(=O)N[C@@H](Cc1ccccc1)C(=O)NC(c1ccccc1)c1ccccc1` [Example 11, [[N-[1-(2,6-dichlorophenyl)methyl]-3-(1-pyrrolidinylmethyl)-1H-indol-5-yl]aminocarbonyl]-glycine-L-α,γ-diaminobutyrate-L-phenylalanine-N-benzhydrylamide], 32 ± 2.3%.
